These results are taken from US8084602B2, “Porphyrin derivatives and their use in photodynamic therapy” (Destiny Pharma Limited, priority 2002, dated 2011).

For data set [1], the system named is intact and abraded rat skin. The data set can be described thus: Acute dermal toxicity test (OECD 402). It counts as in vivo. To be noted: 3.2 mM topical formulation, 24 hours. On the procedure:
The compound was applied to both intact and abraded rat skin for 24 hours.

For data set [2], the system named is Staphylococcus epidermidis ATCC 700565. Description: Range of antimicrobial activity (CFU protocol). It counts as cell-based. As for the experimental part:
(§1) For the further investigation of the exemplary compounds (Table 2), the following protocol was adopted: • (i) Bacteria (S. aureus BAA-44 and E. coli 25922) were grown in brain heart infusion (BHI) broth until they reached the stationary phase of growth. • (ii) The cells were harvested by centrifugation (3000 g for 15 min) with a table centrifuge, washed with 10 mM PBS at pH 7.4 containing 2.7 mM KCl and 0.14 M NaCl and suspended in PBS at an optical density of 0.7 at 650 nm corresponding to 10^8-10^9 cells/ml. • (iii) The bacteria, at the desired cell density (˜10^8 cells/ml) were incubated for 5 min in the dark with various concentrations of the exemplary compounds. • (iv) At the end of the incubation period the cells were washed three times with PBS, suspended in PBS, transferred into a 96-well microtitre plate (200 μl/well) and illuminated for 15 min with the Waldmann light source (15.2 mW/cm^2; 13.7 J/cm^2). The cells were illuminated from the bottom of the plate laying it on the glass cover of the lamp. • (v) After illumination, cell survival was determined by plating serially diluted aliquots of treated and untreated (i.e. no exemplary compound or light present) cells onto brain heart agar (BHA) and counting the number of colonies after 18-24 h incubation at 37° C.
(§2) The antibacterial activity of Compound 10 was tested against a range of bacterial strains: • S. aureus ATCC BAA-44 (a methicillin resistant S. aureus) • Ps. aeruginosa ATCC 25668 • S. epidermidis ATCC 700565 • Streptococcus pyogenes ATCC 49117 • E. coli ATCC 25922

Data set [3] relates to Streptococcus pyogenes ATCC 49117. Description: Range of antimicrobial activity (CFU protocol). It counts as cell-based. As for the experimental part: as §1, §2
The test system of data set [4] is Pseudomonas aeruginosa ATCC 25668. Description: Range of antimicrobial activity (CFU protocol). It counts as cell-based. As for the experimental part: as §1, §2
Data set [5] has as its system Staphylococcus aureus BAA-44. The data set can be described thus: Emergence of bacterial resistance to PDT. Particulars: S. aureus ATCC BAA-44; ten subsequent photodynamic treatments. It counts as cell-based. On the procedure: The potential build up of resistance of the bacterial cells to the exemplary compounds of the invention was tested in the multi-drug resistant (including methicillin) gram positive bacterium Staphylococcus aureus BAA-44, using Compound 10 as the photodynamic agent. The survival of S. aureus BAA-44 after the second treatment was again compared to the survival of S. aureus BAA-44 cells that had not been treated with PDT. […] In an additional experiment, clones which had been exposed nine times to PDT treatment by the above methodology were treated for a tenth time and the results compared to the cell kill observed in a parallel experiment where naïve cultures (i.e. which had not been exposed to PDT) were subjected to PDT treatment under exactly the same conditions.
The results obtained from comparing cell kill contained from cultures that had been exposed to 10 consecutive PDT treatments with neïve cultures (i.e. which had not been exposed to PDT) are shown in FIG. 7. The survival was expressed as log N0/N, where N0 and N represent the number of CFU/ml of the untreated and treated cell suspensions.

Data set [6] in a line: Photostability (photobleaching). It counts as physicochemical. To be noted: 30 minutes illumination. The source says:
A bespoke light source capable of delivering light of an appropriate wavelength (417 nm) was developed to activate the test compounds (Waldmann light source 236). […] It consists of a light box (493 mm length×278 mm width×93.3 mm height) where the samples to be tested are placed on the top surface of the light box and illuminated from below.
The photostability of the exemplary compounds was investigated using standard photodynamic procedures. […] The solution was illuminated for various periods: 10, 20 and 30 minutes. After each predetermined illumination period, the absorbance at 404 nm corresponding to the maximum absorption peak of the compound was measured. Parallel experiments were undertaken where the absorbance of Compound 10 solutions that had been kept in the dark for the same time periods as the illumination time periods were measured. Over the 30 minutes period of illumination a small loss in the absorbance value at 404 nm was observed (see FIG. 10A).
The susceptibility of the Compound 10 to photobleaching when subjected to a light at a higher fluence rate (150 mW/cm^2; i.e. ten times that used normally) was investigated. With this illumination system, the solution was kept in a quartz cuvette during illumination while an equivalent solution was kept in the dark.

Turning to `C[N+](C)(C)CCCOc1ccc(-c2c3nc(cc4ccc([nH]4)c(-c4ccc(OCCC[N+](C)(C)C)cc4)c4nc(cc5ccc2[nH]5)C=C4)C=C3)cc1.[Cl-].[Cl-]` [Compound 10, 5,15-bis-[4-(3-Trimethylammonio-propyloxy)-phenyl]-porphyrin dichloride], in data set [1], the Histological toxicology result was “No Histological toxicology of any major organ (including the skin) was observed”, the “acute toxic or allergic effect” value is “does not result in any acute toxic or allergic effect” and the clinical toxicology result was “no clinical toxicology was observed”. Further, in data set [2], the “Concentration of Compound 10 required to obtain a 3 log reduction in cells (μM)” value was found to be 0.0025 μM. Also, in data set [3], the “Concentration of Compound 10 required to obtain a 3 log reduction in cells (μM)” value is reported as 0.01 μM. Further, the “Concentration of Compound 10 required to obtain a 3 log reduction in cells (μM)” value in data set [4] was 5.0 μM. The development of resistance result in data set [5] was “no appreciable development of resistance”. Besides, in data set [6] (10 μM in phosphate-buffered saline/ethanol, blue light 15 mW/cm^2), the “loss in the absorbance value at 404 nm” value is reported as “small loss”. Further, in data set [6] (10 μM, 150 mW/cm^2), the “reduction of absorbance caused by photobleaching” value is 15-20%.
